For eight compounds, GI50 and TGI results are on record in PubChem BioAssay (NCI).

Structures are written as SMILES. Several values for one entry are separate records, joined by “and”; a condition that tells them apart may be missing. Equal entries are not always repeated.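 Interpolation was linear, between the two tested concentrations surrounding the appropriate level; five concentrations were tested over 48 hours in 96-well plates. At the GI50, growth is halved. TGI denotes the concentration required for complete inhibition of growth.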 Where only a bound is given, the exact number is not on record here.

Test systems include HCT-116 colon; SN12C renal; HCT-15 colon; SR leukemia; HT29 colon; SK-MEL-28 melanoma; CCRF-CEM leukemia; NCI-H226 lung; SF-539 CNS; TK-10 renal.
Common to all, as to experiment: growth of human tumour cells (NCI), 48 h

For the compound `Nc1n[nH]c2ccc([C@H]3[C@@H]4C5CCC(C5)[C@@H]4c4c(ccc5[nH]ncc45)N3S(=O)(=O)C3CC3)cc12` (stereo not given in full), the GI50 is 0.195 µM in the assay on HCT-116 colon; 0.272 µM in the assay on SN12C renal; 0.198 µM in the assay on HCT-15 colon; 0.15 µM in the assay with SR leukemia; 0.171 µM with HT29 colon; 2 µM with SK-MEL-28 melanoma. Moreover, the GI50 was 0.168 µM in the assay on CCRF-CEM leukemia, 0.441 µM with NCI-H226 lung, 0.135 µM in the assay with SF-539 CNS and 3.98 µM in the assay on TK-10 renal. Moreover, the TGI was above 9.99 µM with HCT-116 colon; above 50 µM in the assay with SN12C renal; above 28.8 µM in the assay on HCT-15 colon; 8.52 µM in the assay with HT29 colon; 26 µM with SK-MEL-28 melanoma; above 21.3 µM in the assay with CCRF-CEM leukemia. Also, the TGI with NCI-H226 lung was found to be 10.1 µM; with SF-539 CNS it was 0.484 µM; with TK-10 renal, 36.4 µM.
As for `COc1ccc2c(c1)OC(N)=C(C#N)C2c1ccc(F)c(F)c1` (stereo not given), the GI50 in the assay on HCT-116 colon is 0.41 µM; in the assay with SN12C renal, 0.718 µM; in the assay with HCT-15 colon, 0.348 µM; with SR leukemia, 0.325 µM; with HT29 colon it was 0.318 µM; with SK-MEL-28 melanoma, 3.43 µM. Moreover, the GI50 in the assay with CCRF-CEM leukemia is 0.409 µM; in the assay with NCI-H226 lung, 19.2 µM; in the assay with SF-539 CNS, 0.271 µM; in the assay with TK-10 renal it was 14.7 µM. Moreover, the TGI was 25.5 µM in the assay on HCT-116 colon; above 70.6 µM in the assay on SN12C renal; above 59 µM with HCT-15 colon; above 52.2 µM with SR leukemia; 4.77 µM with HT29 colon; above 100 µM with SK-MEL-28 melanoma. The TGI with CCRF-CEM leukemia is above 100 µM; in the assay with NCI-H226 lung, above 100 µM; in the assay with SF-539 CNS it was 1.05 µM; in the assay with TK-10 renal, above 100 µM.
Turning to `CCCC(c1cc(C(C)(C)C)c(O)cc1C)c1cc(C(C)(C)C)c(O)cc1C`, the TGI with HCT-116 colon was 3.96 µM; in the assay with SN12C renal, 3.81 µM; with HCT-15 colon, 11.4 µM; with SR leukemia, 5.33 µM; with HT29 colon, 17.5 µM; in the assay on SK-MEL-28 melanoma, 12.4 µM. In addition, the TGI worked out at 6.88 µM in the assay with CCRF-CEM leukemia, 4.53 µM in the assay on NCI-H226 lung, 4.7 µM in the assay with SF-539 CNS and 9.55 µM in the assay on TK-10 renal.
`Nc1c2ccccc2nc2nccnc12`: the TGI in the assay with HCT-116 colon, in the assay on SN12C renal, with HCT-15 colon, with SR leukemia, with HT29 colon and in the assay on SK-MEL-28 melanoma was above 100 µM each time. Further, the TGI in the assay with CCRF-CEM leukemia, in the assay on NCI-H226 lung, in the assay with SF-539 CNS and in the assay on TK-10 renal was above 100 µM in each case.
As for `Nc1ncnc2occ(-c3ccc(NC(=O)Nc4cc(C(F)(F)F)ccc4F)cc3)c12`, the GI50 with HCT-116 colon was 5.2 µM and 1.51 µM; in the assay on SN12C renal it was 4 µM and 1.47 µM; with HCT-15 colon, 6.31 µM and 3.97 µM; with SR leukemia, 2.15 µM and 1.05 µM; with HT29 colon, 4.42 µM and 2.64 µM; with SK-MEL-28 melanoma, 5.73 µM and 4.57 µM. The GI50 in the assay with CCRF-CEM leukemia is 7.55 µM and 1.58 µM; with NCI-H226 lung it was 0.717 µM and 0.929 µM; in the assay on SF-539 CNS it was 2.78 µM and 1.09 µM; in the assay with TK-10 renal, 4.78 µM and 1.6 µM. Besides, the TGI was 16.8 µM and 9.61 µM in the assay on HCT-116 colon; 21.2 µM and 11.6 µM in the assay with SN12C renal; 21.7 µM and 13.5 µM in the assay with HCT-15 colon; 11.7 µM and > 25 µM in the assay with SR leukemia; 11.6 µM and 7.03 µM with HT29 colon; 14.3 µM and 11.5 µM in the assay on SK-MEL-28 melanoma. Further, the TGI is 22.8 µM and > 25 µM in the assay on CCRF-CEM leukemia; 18.7 µM and 7.01 µM in the assay on NCI-H226 lung; 8.79 µM and 6.45 µM in the assay on SF-539 CNS; 14.3 µM and 8.76 µM with TK-10 renal.
Turning to `CSc1nc(SC)c2cnn(-c3ccnc4cc(Cl)ccc34)c2n1`, the GI50 in the assay with HCT-116 colon is 52.9 µM; with SN12C renal, 51 µM; in the assay on HCT-15 colon it was above 71.3 µM; in the assay on SR leukemia, 7.88 µM; in the assay on HT29 colon, above 100 µM; with SK-MEL-28 melanoma, above 100 µM. The GI50 was above 100 µM in the assay on CCRF-CEM leukemia, 85.4 µM with NCI-H226 lung, 29.1 µM in the assay on SF-539 CNS and 30.9 µM in the assay with TK-10 renal. The TGI is above 100 µM in the assay with HCT-116 colon; above 100 µM in the assay on SN12C renal; above 100 µM with HCT-15 colon; above 31.9 µM in the assay with SR leukemia; above 100 µM with HT29 colon; above 100 µM in the assay with SK-MEL-28 melanoma. The TGI in the assay with CCRF-CEM leukemia is above 100 µM; in the assay on NCI-H226 lung it was above 100 µM; in the assay with SF-539 CNS, above 62.4 µM; in the assay with TK-10 renal, above 89.1 µM.
Turning to `Cc1cc(C)c2c(=O)cc(-c3ccc(F)cc3)[nH]c2n1`, the GI50 in the assay with HCT-116 colon was 50 µM. Further, the TGI was above 100 µM in the assay on HCT-116 colon; above 100 µM in the assay on SN12C renal; above 100 µM in the assay with HCT-15 colon; 67.7 µM with SR leukemia; above 100 µM in the assay with HT29 colon; above 100 µM in the assay with SK-MEL-28 melanoma. The TGI with CCRF-CEM leukemia, in the assay on NCI-H226 lung, in the assay with SF-539 CNS and in the assay with TK-10 renal was above 100 µM throughout.
`CCOC(=O)c1c2c(n(Cc3ccccc3)c1C)-c1nc[nH]c1C(=O)C2=O`: the GI50 was 16 µM with HCT-116 colon; 16.4 µM with SN12C renal; 14.8 µM in the assay with HCT-15 colon; 1.29 µM in the assay on SR leukemia; 28.9 µM with HT29 colon; 19.3 µM in the assay with SK-MEL-28 melanoma. Besides, the GI50 in the assay on CCRF-CEM leukemia is 1.57 µM; in the assay with NCI-H226 lung, 20.9 µM; in the assay with SF-539 CNS it was 17.7 µM; in the assay on TK-10 renal, 16.2 µM. Moreover, the TGI in the assay with HCT-116 colon was determined as 30.4 µM; with SN12C renal, 30 µM; in the assay on HCT-15 colon, 29.1 µM; with SR leukemia, 3.6 µM; in the assay with HT29 colon, 76.4 µM; with SK-MEL-28 melanoma, 34.1 µM. For the same compound, the TGI with CCRF-CEM leukemia stood at 7.87 µM; in the assay on NCI-H226 lung, 47.2 µM; in the assay on SF-539 CNS it was 31.9 µM; in the assay on TK-10 renal, 31.3 µM.
